The target of experiment [1] is Replicase polyprotein 1ab (Severe acute respiratory syndrome coronavirus 2, UniProt P0DTD1). Put plainly: Inhibition of recombinant SARS-CoV-2 3CLpro using MCA-AVLQSGFR-Lys(Dnp)-Lys-NH2 as substrate incubated for 1.5 hrs by fluorescence based analysis.
The nature of experiment [2]: Inhibition of human recombinant Cathepsin L-like protease using Z-FR-AMC as substrate preincubated for 30 mins followed by substrate addition and measured after 1.5 hrs by fluorescence based analysis.

Where a SMILES comes first, the peptide text is derived from it. The star is where a group is joined. Nicotinoyl = O=C(c1cccnc1)*; PhAc = O=C(Cc1ccccc1)*

Turning to `CC(C)C[C@H](NC(=O)c1cc2ccccc2[nH]1)C(=O)N[C@H](C=O)Cc1ccccc1`, the IC50 in experiment [1] was > 10000 nM; in experiment [2] it was 10.1 nM.
For `CC(C)C[C@H](NC(=O)/C=C/c1ccccc1)C(=O)N[C@@H](Cc1ccccc1)C(=O)CCl`, the IC50 in experiment [1] is > 10000 nM; in experiment [2], 9.87 nM.
In the same order, the values of `CC(C)C[C@H](NC(=O)c1ccc2ccccc2c1)C(=O)N[C@H](C=O)Cc1ccccc1` are > 10000 nM and 2.83 nM.
On to `CCC[C@H](NC(=O)/C=C/c1ccccc1)C(=O)N[C@H](C=O)Cc1ccccc1`, for which the IC50 in experiment [1] was > 10000 nM; in experiment [2], 125 nM.
Regarding `CC(C)C[C@H](NC(=O)/C=C/c1ccccc1)C(=O)N[C@H](C=O)Cc1cccc(F)c1`, the IC50 in experiment [1] was > 10000 nM; in experiment [2] it was 162 nM.
In the same order, the values of `CC[C@H](C)[C@H](NC(=O)/C=C/c1ccccc1)C(=O)N[C@H](C=O)Cc1ccccc1` are > 10000 nM and 170 nM.
Take `COC(=O)/C=C/[C@H](Cc1ccccc1)NC(=O)[C@H](CC(C)C)NC(=O)/C=C/c1ccccc1`: the IC50 in experiment [1] is > 10000 nM; in experiment [2], > 1000 nM.
In the same order, the values of `CC(C)C[C@H](NC(=O)c1ccc2[nH]ccc2c1)C(=O)N[C@H](C=O)Cc1ccccc1` are > 10000 nM and 2.05 nM.
In the same order, the values of `CC(C)C[C@H](NC(=O)/C=C/c1ccccc1)C(=O)N[C@@H](C=O)Cc1ccccc1` are > 10000 nM and > 1000 nM.
For the compound `CC(C)C[C@H](NC(=O)c1ccc[nH]1)C(=O)N[C@H](C=O)Cc1ccccc1`, the IC50 in experiment [1] is > 10000 nM; in experiment [2], 37.7 nM.
For the compound `C=Cc1ccc(C(=O)N[C@@H](CC(C)C)C(=O)N[C@H](C=O)Cc2ccccc2)cc1`, the IC50 in experiment [1] is > 10000 nM; in experiment [2] it was 9.41 nM.
The matching figures for `CC(C)C[C@H](NC(=O)c1ccco1)C(=O)N[C@H](C=O)Cc1ccccc1`: > 10000 nM and 17.4 nM.
Take `CC(C)C[C@H](NC(=O)Cc1ccccc1)C(=O)N[C@H](C=O)Cc1ccccc1` (PhAc-Leu-Phe-aldehyde): the figures for the IC50 in experiment [1] and in experiment [2] were > 10000 nM and 7.82 nM, respectively.
In the same order, the values of `CC(C)C[C@H](NC(=O)/C=C/c1ccccc1)C(=O)N[C@H](C=O)C(C)C` are > 10000 nM and 23.4 nM.
For `CC(C)C[C@H](NC(=O)/C=C/c1ccccc1)C(=O)N[C@H](C=O)CC1CCCCC1`, the IC50 is > 10000 nM in experiment [1] and 47.8 nM in experiment [2].
Regarding `CC(C)[C@H](NC(=O)/C=C/c1ccccc1)C(=O)N[C@H](C=O)Cc1ccccc1`, the IC50 in experiment [1] was > 10000 nM; in experiment [2], 22 nM.
In the case of `O=C[C@H](Cc1ccccc1)NC(=O)[C@H](Cc1ccccc1F)NC(=O)/C=C/c1ccccc1`, the concentration for half-maximal inhibition (IC50) in experiment [1] was > 10000 nM; in experiment [2], 6.82 nM.
In the same order, the values of `CC(C)C[C@H](NC(=O)c1cccnc1)C(=O)N[C@H](C=O)Cc1ccccc1` (Nicotinoyl-Leu-Phe-aldehyde) are > 10000 nM and 14.4 nM.
For the compound `C[C@H](NC(=O)/C=C/c1ccccc1)C(=O)N[C@H](C=O)Cc1ccccc1`, the results for the 50% inhibitory concentration (IC50) in experiment [1] and in experiment [2] were > 10000 nM and 42.1 nM, respectively.
The matching figures for `CC(C)C[C@H](NC(=O)/C=C/c1ccccc1)C(=O)N[C@H](C=O)Cc1ccccc1F`: > 10000 nM and 23.4 nM.
In the same order, the values of `CC(C)C[C@H](NC(=O)/C=C/c1cccc(Cl)c1)C(=O)N[C@H](C=O)Cc1ccccc1` are > 10000 nM and 27.1 nM.
With `O=C[C@H](Cc1ccccc1)NC(=O)[C@H](Cc1ccc(Br)cc1)NC(=O)/C=C/c1ccccc1`, the results for the concentration for half-maximal inhibition (IC50) in experiment [1] and in experiment [2] were > 10000 nM and 11.6 nM, respectively.
The matching figures for `O=C[C@H](Cc1ccccc1)NC(=O)[C@H](Cc1cccc(F)c1)NC(=O)/C=C/c1ccccc1`: > 10000 nM and 6.56 nM.
The matching figures for `CCCC[C@H](NC(=O)/C=C/c1ccccc1)C(=O)N[C@H](C=O)Cc1ccccc1`: > 10000 nM and 157 nM.

What is called IC50 is the point on the concentration scale where inhibition reaches its midpoint.

The record behind these values is ChEMBL document CHEMBL6120945, “Peptidomimetic Analogues Act as Effective Inhibitors against SARS-CoV-2 by Blocking the Function of Cathepsin L” (J Med Chem, 2024).
